Results taken from paper PMC9611727, “Optimization of a Novel Mandelamide-Derived Pyrrolopyrimidine Series of PERK Inhibitors” (Pharmaceutics, 2022).
Like-named read-outs stand apart in the source and are kept apart here.

Columns and labels:
PERK = biological target: T1, PERK (Homo sapiens, UniProt Q9NZJ5); test: PERK biochemical LanthaScreen TR-FRET assay (GFP-eIF2a phosphorylation)
T1 sequence (Q9NZJ5 30-1116): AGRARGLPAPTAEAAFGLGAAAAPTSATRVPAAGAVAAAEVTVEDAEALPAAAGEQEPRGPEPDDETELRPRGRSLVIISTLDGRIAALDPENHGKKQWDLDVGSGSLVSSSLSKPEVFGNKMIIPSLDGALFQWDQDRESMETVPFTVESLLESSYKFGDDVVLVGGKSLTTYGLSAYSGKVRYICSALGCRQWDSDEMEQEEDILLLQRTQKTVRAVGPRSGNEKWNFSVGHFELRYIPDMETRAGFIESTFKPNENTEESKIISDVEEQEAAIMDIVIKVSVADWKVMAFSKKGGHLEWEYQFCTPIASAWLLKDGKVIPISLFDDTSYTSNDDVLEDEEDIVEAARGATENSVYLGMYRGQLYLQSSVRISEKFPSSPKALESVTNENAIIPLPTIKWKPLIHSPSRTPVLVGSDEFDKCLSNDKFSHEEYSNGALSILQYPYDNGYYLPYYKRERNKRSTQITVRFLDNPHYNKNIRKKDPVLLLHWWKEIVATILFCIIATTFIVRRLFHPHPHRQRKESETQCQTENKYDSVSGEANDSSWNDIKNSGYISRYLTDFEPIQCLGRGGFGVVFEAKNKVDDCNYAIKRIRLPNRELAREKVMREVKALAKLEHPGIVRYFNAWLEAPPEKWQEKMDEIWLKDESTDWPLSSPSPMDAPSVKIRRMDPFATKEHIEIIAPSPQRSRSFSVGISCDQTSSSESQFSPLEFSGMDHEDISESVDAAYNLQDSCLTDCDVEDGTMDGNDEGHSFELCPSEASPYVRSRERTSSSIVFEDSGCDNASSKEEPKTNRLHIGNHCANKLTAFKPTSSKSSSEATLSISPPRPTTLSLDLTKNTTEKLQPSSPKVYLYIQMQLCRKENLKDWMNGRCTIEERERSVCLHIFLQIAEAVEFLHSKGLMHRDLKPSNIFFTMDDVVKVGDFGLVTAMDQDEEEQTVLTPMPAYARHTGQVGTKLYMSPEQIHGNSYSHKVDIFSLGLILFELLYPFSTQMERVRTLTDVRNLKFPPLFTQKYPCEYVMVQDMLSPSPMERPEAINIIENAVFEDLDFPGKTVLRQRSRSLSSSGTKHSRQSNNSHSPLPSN
Procedure: Methods used to evaluate biochemical PERK activity are described and published elsewhere. In brief, biochemical PERK activity is evaluated using a LanthaScreenTM ([…]) TR-FRET assay to detect phosphorylation of a GFP-tagged eIF2a substrate (ThermoFisher). Excitation at […] of a terbium chelate donor fluorophore in an eIF2a antibody results in energy transfer to GFP acceptor fluorophore upon eIF2a phosphorylation by PERK. Reaction buffer was composed of 50 mM HEPES (pH 7.4), 10 mM MgCl2, 1 mM EGTA and 0.01% (v/v) BrijTM-35. Reactions were initiated by the addition of substrate and ATP, followed by incubation for 1 h at RT prior to addition of EDTA and the anti-peIF2a antibody. FRET was measured by an EnVision Plate Reader (PerkinElmer). Data were plotted as percent inhibition along a 10-point 3-fold dilution series of inhibitors. IC50 values were calculated using 4-parameter logistical fitting in XLFit.
The PERK activity of analog I was evaluated using cell-free biochemical assays. In these assays, PERK phosphorylation of eIF2a was assessed using a FRET-based labelled protein assay. Compounds were then evaluated for cellular activity by quantifying inhibition of eIF2a phosphorylation in HEK293 cells treated with the ER inducer tunicamycin [7].

[1] = Metabolic clearance in hepatocytes, mouse; type: in vitro ADME; details: male, ICR/CD-1, cryopreserved mouse hepatocytes, read-out: Hepatocyte Clearance (t1/2 min) Mouse
Procedure: Metabolic Clearance in Hepatocytes
Testosterone was obtained from Cerilliant (Round Rock, TX). 7-Hydroxycoumarin was obtained from Sigma-Aldrich (St.
Louis, MO). Ten-donor male pooled cryopreserved human hepatocytes, cryopreserved male Sprague Dawley rat hepatocytes, cryopreserved male ICR/CD-1 mouse hepatocytes, cryopreserved male beagle dog hepatocytes, In VitroGro HI Medium (Incubation), and InVitroGro HT Medium (Thawing) were obtained from Bioreclamation IVT (Baltimore, MD). All solvents were obtained from commercial sources and used without further purification.Test compound was prepared as a 1 mM stock solution in DMSO. A 2 µM solution of test compound and testosterone was prepared (7 - hydroxycoumarin was prepared at 20 µM) in In VitroGro HI Medium (Incubation). These solutions were placed in a sterile incubator set to maintain 37°C, 5% CO2, and 98% humidity to pre-warm. Cryopreserved hepatocytes were prepared at a concentration of 2 x 10^6 living cells/mL in incubation media and placed in the incubator to pre-warn. The compound solutions and hepatocyte mixtures were then combined at a ratio of 1:1 (v:v). The final volume of the reaction mixture was 750 µL, containing 1 µM test compound and 1 x 10^6 cells/mL. The reaction mixture was placed in the incubator on a plate shaker. After 0, 15, 30, 60, 90, and 120 minutes of incubation, 100 µL of reaction mixtures were removed from the incubation plate and mixed with 150 µL of ice-cold acetonitrile in a designated well of a 96-well crash plate. The 96-well crash plate was placed on ice for 15 min, and samples were centrifuged (3,600 rpm, 10 min, 4 °C) to precipitate protein.
The supernatants were diluted 1:1 (v/v) with water containing tolbutamide, (internal standard for positive and negative modes, respectively) in a 96-well shallow injection plate. This plate was sealed for LC-MS analysis. All measurements

[2] = cell-free TR-FRET, GFP-eIF2a substrate, read-out: PERK IC50

Molecule Cc1cc(NC(=O)[C@H](O)c2cccc(F)c2)ccc1-c1cn(C)c2ncnc(N)c12 [Compound 11, (R)-N-(4-(4-amino-7-methyl-7H-pyrrolo[2,3-d]pyrimidin-5-yl)-3-methylphenyl)-2-(3-fluorophenyl)-2-hydroxy acetamide] has an IC50 (PERK; [2]) of 2.2 nM.
In the case of Cc1nc(N)c2c(-c3ccc(NC(=O)[C@H](O)c4cccc(F)c4)cc3C)cn(C)c2n1 [Compound 24], the half-life at 1 µM [1] is reported as 31 min and the IC50 (PERK; [2]) is reported as 20 nM.
With Cc1nc(N)c2c(-c3ccc(NC(=O)[C@H](O)c4cccc(C(F)(F)F)c4)cc3C)cn(C)c2n1 [Compound 26] the half-life at 1 µM [1] was 118 min and the IC50 (PERK; [2]) was 2.8 nM.
For Cc1nc(N)c2c(-c3ccc(NC(=O)[C@H](O)c4cccc(Cl)c4)cc3C)cn(C)c2n1 [Compound 28], the half-life at 1 µM [1] was 62 min and the IC50 (PERK; [2]) was 1.8 nM.
Molecule Cc1nc(N)c2c(-c3ccc(NC(=O)[C@H](O)c4cc(F)cc(F)c4)cc3C)cn(C)c2n1 [Compound 38] has a half-life at 1 µM [1] of 805 min and an IC50 (PERK; [2]) of 1.9 nM.
Molecule Cc1nc(N)c2c(-c3ccc(NC(=O)[C@H](O)c4cc(F)cc(C(F)(F)F)c4)cc3C)cn(C)c2n1 [Compound 39] has a half-life at 1 µM [1] of 320 min and an IC50 (PERK; [2]) of 2.6 nM.
Cc1cc(F)cc([C@@H](O)C(=O)Nc2ccc(-c3cn(C)c4nc(C)nc(N)c34)c(C)c2)c1 [Compound 41] gave a half-life at 1 µM [1] of 24 min and an IC50 (PERK; [2]) of 1.4 nM.
Cc1nc(N)c2c(-c3ccc(NC(=O)[C@H](O)c4cccc(Cl)c4)cc3F)cn(C)c2n1 [Compound 48] showed a half-life at 1 µM [1] of 53 min, an IC50 (PERK; bound stated, read-out: biochemical potency) of less than 5 nM and an IC50 (PERK; [2]) of 1 nM.
Cc1nc(N)c2c(-c3ccc(NC(=O)[C@H](O)c4cccc(F)c4)c(F)c3C)cn(C)c2n1 [Compound 65] gave a half-life at 1 µM [1] of 64 min and an IC50 (PERK; [2]) of 1.9 nM.
Cc1nc(N)c2c(-c3cc(F)c(NC(=O)[C@H](O)c4cccc(F)c4)cc3C)cn(C)c2n1 [Compound 66] showed a half-life at 1 µM [1] of 167 min and an IC50 (PERK; [2]) of 11 nM.
In the case of Cc1nc(N)c2c(-c3ccc(NC(=O)[C@H](O)c4cccc(F)c4)c(F)c3F)cn(C)c2n1 [Compound 70, (R)-N-(4-(4-amino-2,7-dimethyl-7H-pyrrolo[2,3-d]pyrimidin-5-yl)-2,3-difluorophenyl)-2-(3-fluorophenyl)-2-hydroxyacetamide], the half-life at 1 µM [1] is reported as 45 min and the IC50 (PERK; [2]) is reported as 1.5 nM.
